Source: paper PMC12040169 (PLOS Biology, 2025)

Assay: in vitro
Conditions: human, hela cells, % viability

Row | SMILES | viability at 28.5 h, 10 µM [%]
1 | Cc1ccc2nc(-c3ccncc3)cc(C(=O)N3CCN(c4ncccn4)CC3)c2c1 [CBK267751] | 93
2 | OC(CN[C@H]1CC[C@](O)(c2ccc(Cl)cc2)CC1)c1ccccc1 (stereo partly shown) [CBK016206] | 98.4
3 | CC1=C(CCN2CCCC(CO)C2)C(C)(C)CCC1 (stereo not shown) [CBK020827] | 88.2
4 | CC(C)C(=O)N1C[C@H]2N(C)C(=O)c3ccccc3C(=O)[C@@]2(C)C1 [CBK284568] | 97.8
5 | Cc1csc(C(Cc2cccs2)NC(=O)C2CCOCC2)n1 (stereo not shown) [CBK285006] | 89.2
6 | COC(=O)[C@@H](C)NC(=O)[C@@H]1CN(C(=O)c2cccc(F)c2)CCN1S(C)(=O)=O [CBK289625] | 96.8
7 | CC(C)(C)OC(=O)N1CCN(c2nccnc2Cl)CC1 [CBK013554] | 102
8 | CN(Cc1nc2c(s1)CCCC2)C(=O)COc1ncnc2ccccc12 [CBK307151] | 90.7
9 | Cc1ccc2[nH]c(/C(C#N)=C\c3cc(C)n(-c4ccc(S(N)(=O)=O)cc4)c3C)nc2c1 [CBK267611] | 105
10 | O=C(c1ccc(OC(F)F)cc1)N1CCCc2cc(S(=O)(=O)N3CCCCC3)ccc21 [CBK295621] | 118
11 | Cn1cccc1C(=O)N[C@H]1C[C@@H]2C(=O)N[C@H]3CCN(C(=O)C4CCCC4)[C@@H]3C(=O)N2C1 [CBK289272] | 97.1
12 | CC(C)(C)C(=O)N[C@H]1C[C@@H](Cc2cc(CO)on2)C1(C)C [CBK289260] | 92.1
13 | O=C1CN(c2nc(-c3ccncc3)nc3ccccc23)CCN1 [CBK305805] | 91.9
14 | Cc1nc2ccccc2n1CC(=O)N(Cc1cccnc1)C1CC1 [CBK305248] | 109
15 | Cc1cc(-c2cc(=O)n(CCc3ccccc3)nc2-c2ccco2)on1 [CBK282879] | 105
16 | Cc1n[nH]c(O)c1C(c1ccc(Br)o1)c1c(C)n[nH]c1O [CBK026150] | 102
17 | CN1CCN(NC(=O)c2cc(C(=O)c3ccc(Cl)cc3Cl)c[nH]2)CC1 [CBK107420] | 91.4
18 | COc1cc(CNc2cncc(-c3cccc(NC(C)=O)c3)n2)cc(OC)c1OC [CBK066133] | 100
19 | C=CCN1C(=O)CC2(C1=O)C(=O)N(C)c1ccccc12 (stereo not shown) [CBK075472] | 99
20 | O=C(Cc1cccc2ccccc12)Nc1nnc(C2=COCCO2)o1 [CBK287414] | 86.6
21 | COc1cccc(C(=O)N2Cc3ccccc3CC2C(=O)O)c1 (stereo not shown) [CBK287150] | 102
22 | CN1CCN(C(=O)c2cccc(-c3nc(-c4ccc(C#N)cc4)cnc3N)c2)CC1 [CBK064144] | 100

Row | SMILES | viability at 28.5 h, 10 µM [%]
23 | O=C1CC2(CCN(C(=O)C3CCOC3)CC2)Oc2c(Br)cc(Br)cc21 (stereo not shown) [CBK156512] | 96.4
24 | Clc1ccc(OCc2ccccc2)c(CNCc2ccccn2)c1 [CBK269850C] | 91.2
25 | FC(F)(F)c1ccc(OCc2ccc(-c3ccccc3)cc2)nc1 [CBK115830] | 94.6
26 | CC1CCc2n[nH]c(C(=O)N3CCC(O)C(C)C3)c2C1 (stereo not shown) [CBK283207] | 107
27 | COCCN(Cc1cnn(C)c1)C(=O)c1ccc2oc(C)cc2c1 [CBK307059] | 96.6
28 | COc1cc(-c2nnc(CSc3nc4sc(C(=O)O)c(C)c4c(=O)[nH]3)o2)cc(OC)c1OC [CBK296973] | 91
29 | COc1ccccc1-c1noc(C2CCN(S(=O)(=O)c3ccc(F)cc3)CC2)n1 [CBK269401] | 92.9
30 | CCOC(=O)c1sc(NS(=O)(=O)c2ccc(C(=O)O)cc2)cc1C [CBK296623] | 100
31 | COc1cc(Nc2cc(-n3nc(C)cc3C)ncn2)cc(OC)c1OC [CBK288594] | 93.2
32 | CC1CN(C(=O)NC2CC2)C(C)CN1CCCC(c1ccc(F)cc1)c1ccc(F)cc1 (stereo not shown) [CBK024927C] | 104
33 | CCOC(=O)N1CCC(NC(=O)N2CCC(C(=O)O)CC2)CC1 [CBK156080] | 95.2
34 | O=C(CN(c1ccccc1)S(=O)(=O)c1ccc(F)cc1)Nc1ccc(Cl)c(Cl)c1 [CBK268740] | 86.6
35 | S=C(NCCc1ccccc1)NCCN1CCOCC1 [CBK264929] | 87.4
36 | COc1ccc2ccccc2c1CNc1ccc(N2CCOCC2)c(C(=O)O)c1 [CBK269376] | 94.1
37 | COC(=O)C(CC(C)C)Nc1nc(OC)cc(OC)n1 (stereo not shown) [CBK058765] | 121
38 | c1csc(CNc2c(-c3cccs3)nc3cnccn23)c1 [CBK283685] | 92.7
39 | COc1ccnc(N2CCN(Cc3cncn3C3CCCCC3)CC2)n1 [CBK306925] | 98.1
40 | CCCN1CCC(CNC(=O)c2cnn(-c3ccc(F)cc3)c2)CC1 [CBK282466] | 112
41 | CCOC(=O)N1CCC(NS(=O)(=O)c2cn(C)c(=O)n(C)c2=O)CC1 [CBK305699] | 89.1
42 | CC1(C)C(C(=O)O)C1C(=O)NCCc1ccc(O)cc1 (stereo not shown) [CBK286832] | 104
43 | COC(=O)c1ccccc1NC(=O)CC1Nc2ccccc2NC1=O (stereo not shown) [CBK269276A] | 91.9
44 | COc1cc(-c2ccc3c(c2)COC2(CCCNC2)O3)cc(OC)c1OC (stereo not shown) [CBK092299] | 93

Row | SMILES | viability at 28.5 h, 10 µM [%]
45 | O=C(NC(c1ccc(-c2ccccc2)cc1)c1cnccn1)C1CCN(CCOc2ccc3ccccc3c2)CC1 (stereo not shown) [CBK147982] | 93.6
46 | CCN(CC)CCNc1nc2cc(Cl)ccc2[nH]1 [CBK262453] | 102
47 | O=C(CSc1ccc(Cl)cc1)OCC(=O)c1ccccc1 [CBK264306] | 106
48 | Cc1cc(C)n(C2CN(C(=O)NCCCOc3cccnc3)C2)n1 [CBK307632] | 84.1
49 | Cc1ccccc1OCC(=O)NCc1ccc(C(=O)O)cc1 [CBK287155] | 104
50 | CC(C)Cc1noc(CN2CCC(C(=O)NCc3ccco3)CC2)n1 [CBK305995] | 107
51 | O=C(Nc1ncc(Cl)s1)C1CC(=O)N(C2CC2)C1 (stereo not shown) [CBK175551] | 102
52 | COc1ccc(C(C)N(CCN2CCOCC2)C(=O)NCc2cccc3ccccc23)cc1OC (stereo not shown) [CBK158984] | 96.4
53 | COc1ccc(Oc2cncc(OC3CCN(CC4CCCCC4)C3)n2)cc1OC (stereo not shown) [CBK084413] | 96.4
54 | N[C@H]1CCN2C(=O)c3cc(-c4ccc(F)cc4F)ccc3NC(=O)[C@H]12 [CBK289345] | 94.4
55 | COC(=O)Nc1ccc(S(=O)(=O)N2CCCC(C(=O)Nc3ccc4c(c3)OCO4)C2)cc1 (stereo not shown) [CBK265361] | 89.8
56 | CNC1CCN(S(=O)(=O)c2sc3ccc(C(C)C)cc3c2C)C1 (stereo not shown) [CBK170067] | 110
57 | CC(C)CNc1nccnc1-c1ccc(Cl)cc1 [CBK088738] | 91.3
58 | Cc1ccc(-c2nc(C3CCN(C(=O)NC(C)C)CC3)n3ccccc23)cc1 [CBK046861] | 95
59 | CCn1c(C)cc2cc(NS(=O)(=O)c3ccc4[nH]c(=O)[nH]c(=O)c4c3)ccc21 [CBK286363] | 104
60 | COc1cc(C(C)=O)ccc1OC(=O)CN1C(=O)c2ccccc2C1=O [CBK262392] | 112
61 | Cc1ccc(C(=O)NC(=S)Nc2cccc(NC(=O)c3ccccc3C)c2)cc1 [CBK264049] | 95.1
62 | CNC(=O)c1cnn2c(C)c(Cc3cccnc3)c(C)nc12 [CBK162165] | 78.2
63 | CC(Oc1ccc(-c2ccccc2)cc1)C(=O)Nc1ccc(S(N)(=O)=O)cc1 (stereo not shown) [CBK267979] | 87.2
64 | COc1ccc(OC(C)C(=O)Nc2cc(OC)c(Cl)cc2OC)cc1 (stereo not shown) [CBK263627] | 96
65 | O=S(=O)(c1ccc(F)c(Cl)c1)N1CCCN(Cc2ccccc2)CC1 [CBK045211] | 101
66 | O=S(=O)(Nc1ccc2cc(Br)cnc2n1)c1cccc2nsnc12 [CBK073894] | 82.8

Row | SMILES | viability at 28.5 h, 10 µM [%]
67 | Cn1ccnc1C1(O)C2CCCC1CN(Cc1ccccc1F)C2 (stereo not shown) [CBK285206] | 97.2
68 | CN1CCN(CCCNC(=O)N2CCN(c3ccccc3)CC2)CC1 [CBK155168] | 101
69 | Cc1cc(NS(=O)(=O)N2CCCCC2)no1 [CBK269947] | 100
70 | COC(=O)c1ccc(CNc2nc(OC)cc(OC)n2)cc1 [CBK093391] | 95
71 | CC(Nc1ccc(N2CCOCC2)cc1)C(=O)Nc1cccc(C#N)c1 (stereo not shown) [CBK305846] | 82.2
72 | CN1C(=O)CC2(C1=O)C(=O)N(CC(=O)c1ccccc1)c1ccc(F)cc12 (stereo not shown) [CBK075420] | 95.4
73 | O=c1c2cc(F)ccc2nc2n1CCN(Cc1ccccc1)CC2 [CBK285300] | 94.5
74 | O=S(=O)(NCc1ccco1)c1ccc2c(c1)Cc1ccccc1-2 [CBK267377] | 95.5
75 | CCOc1ccccc1NC(=O)NC1CC2CCC(C1)N2Cc1ccccc1 (stereo not shown) [CBK116294] | 86.2
76 | COc1cc(C)c(C)cc1S(=O)(=O)N1[C@@H](c2ccccc2F)C[C@@H]2NC(=O)CCC[C@H]21 [CBK286012] | 112
77 | CCC1C(=O)NCCN1C(=O)c1ccc2c(c1)ncn2C (stereo not shown) [CBK281709] | 82.4
78 | CC(C)N/C(=N/S(=O)(=O)c1ccccc1)c1ccccc1 [CBK262346] | 98.2
79 | Cc1ncncc1C(=O)NCC1(c2ccccc2F)CCCC1 [CBK281411] | 105
80 | O=C(c1cnc2ccccc2n1)N1CCC(F)CC1 [CBK200264] | 93.4
81 | CCCN(CCC)C(=O)c1nc(C)c(C(=O)N(CCC)CCC)nc1C [CBK023232] | 89.2
82 | CCOc1ccc(S(=O)(=O)N2CCC(C(=O)O)CC2)cc1Cl [CBK269759] | 97.4
83 | CC1CCc2onc(C(=O)NCc3nccn3C)c2C1 (stereo not shown) [CBK281514] | 68.9
84 | O=C(O)/C(=N\c1cccc2ccccc12)c1ccccc1 [CBK262224] | 75.7
85 | CCc1nnsc1C(=O)N1CCc2[nH]c3c(C)cccc3c2C1 [CBK281655] | 86.2
86 | O=C(c1cncc(-c2[nH]nnc2-c2ccccc2)c1)N1CCCC1 [CBK160360] | 91.7
87 | COc1ccc2c(c1)Cc1sc(NC(C)=O)nc1-2 [CBK287876] | 93.8
88 | O=C(C1=C(O)C(=O)N(CCCN2CCOCC2)C1c1cccnc1)c1cccs1 (stereo not shown) [CBK264555] | 113
